Reference: ChEMBL document CHEMBL1201862, “PubChem BioAssay data set” (2004)
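Values below derive from 48-hour exposures of cells grown in 96-well plates, with endpoints linearly interpolated between the two concentrations bracketing the appropriate inhibition level. Here, GI50 denotes the concentration required for 50% inhibition of growth.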 The source made the active and inactive calls. Rule as the data show it: active = GI50 up to about 1.1 µM and inactive = higher.

Key:
Experiment in all cases: inhibition of tumour cell growth, NCI panel, 48 h
[1] = tested on: HT-29
[2] = tested on: RPMI-8226
[3] = tested on: HOP-62
[4] = tested on: UO-31
[5] = tested on: SR
[6] = tested on: CAKI-1
[7] = tested on: SK-MEL-2
[8] = tested on: TK-10
[9] = tested on: SW-620
[10] = tested on: A549
[11] = tested on: SK-OV-3
[12] = tested on: MDA-MB-435
[13] = tested on: SN12C
[14] = tested on: SK-MEL-5
[15] = tested on: NCI-H23
[16] = tested on: LOX IMVI
[17] = tested on: OVCAR-5
[18] = tested on: CCRF-CEM
[19] = tested on: OVCAR-3
[20] = tested on: ACHN
[21] = tested on: SNB-19
[22] = tested on: OVCAR-4
[23] = tested on: BT-549
[24] = tested on: EKVX
[25] = tested on: NCI/ADR-RES
[26] = tested on: SK-MEL-28
[27] = tested on: T47D
[28] = tested on: SF-539
[29] = tested on: Hs-578T
[30] = tested on: DU-145
[31] = tested on: HL-60
[32] = tested on: COLO 205
[33] = tested on: NCI-H522
[34] = tested on: MDA-MB-231
[35] = tested on: HCT-116
[36] = tested on: U-251
[37] = tested on: A498
[38] = tested on: UACC-257
[39] = tested on: NCI-H226
[40] = tested on: MDA-N
[41] = tested on: MCF7
[42] = tested on: NCI-H460
[43] = tested on: M14
[44] = tested on: MOLT-4
[45] = tested on: KM12
[46] = tested on: IGROV-1
[47] = tested on: SF-295
[48] = tested on: PC-3
[49] = tested on: 786-0
[50] = tested on: K562
[51] = tested on: Malme-3M
[52] = tested on: HCT-15
[53] = tested on: OVCAR-8
[54] = tested on: HCC 2998
[55] = tested on: SNB-75
[56] = tested on: UACC-62
[57] = tested on: SF-268
[58] = tested on: RXF 393
[59] = tested on: HOP-92

C=C1CC[C@@H]2[C@](C)(COC(=O)CCC(=O)OC)CCC[C@@]2(C)[C@@H]1CCC1=CC(=O)OC1
GI50 [1]: > 100 µM (inactive)
GI50 [2]: 16.1 µM (inactive)
GI50 [3]: > 100 µM (inactive)
GI50 [4]: > 100 µM (inactive)
GI50 [5]: 21.5 µM (inactive)
GI50 [6]: 26.2 µM (inactive)
GI50 [7]: 43.4 µM (inactive)
GI50 [8]: > 100 µM (inactive)
GI50 [9]: 46.5 µM (inactive)
GI50 [10]: > 100 µM (inactive)
GI50 [11]: > 100 µM (inactive)
GI50 [12]: > 100 µM (inactive)
GI50 [13]: > 100 µM (inactive)
GI50 [14]: 30.5 µM (inactive)
GI50 [15]: > 100 µM (inactive)
GI50 [16]: 55.3 µM (inactive)
GI50 [17]: > 100 µM (inactive)
GI50 [18]: 28.2 µM (inactive)
GI50 [19]: 61.4 µM (inactive)
GI50 [20]: > 100 µM (inactive)
GI50 [21]: > 100 µM (inactive)
GI50 [22]: > 100 µM (inactive)
GI50 [23]: 64.9 µM (inactive)
GI50 [24]: > 100 µM (inactive)
GI50 [25]: 72.8 µM (inactive)
GI50 [26]: > 100 µM (inactive)
GI50 [27]: 29.2 µM (inactive)
GI50 [28]: > 100 µM (inactive)
GI50 [29]: 77.6 µM (inactive)
GI50 [30]: 71.4 µM (inactive)
GI50 [31]: 20.3 µM (inactive)
GI50 [32]: 77.8 µM (inactive)
GI50 [33]: 25.9 µM (inactive)
GI50 [34]: > 100 µM (inactive)
GI50 [35]: 59.8 µM (inactive)
GI50 [36]: > 100 µM (inactive)
GI50 [37]: > 100 µM (inactive)
GI50 [38]: > 100 µM (inactive)
GI50 [39]: 74.3 µM (inactive)
GI50 [40]: 56 µM (inactive)
GI50 [41]: 38.1 µM (inactive)
GI50 [42]: > 100 µM (inactive)
GI50 [43]: > 100 µM (inactive)
GI50 [44]: 17.4 µM (inactive)
GI50 [45]: 43.6 µM (inactive)
GI50 [46]: > 100 µM (inactive)
GI50 [47]: > 100 µM (inactive)
GI50 [48]: 41 µM (inactive)
GI50 [49]: 70.5 µM (inactive)
GI50 [50]: 29 µM (inactive)
GI50 [51]: > 100 µM (inactive)
GI50 [52]: 39.5 µM
GI50 [53]: 63 µM (inactive)

Oc1ccc(-c2cc(-c3c(O)cc(O)cc3O)on2)cc1
GI50 [1]: 37 µM (inactive)
GI50 [2]: 44.9 µM (inactive)
GI50 [3]: > 100 µM (inactive)
GI50 [4]: 53 µM (inactive)
GI50 [5]: 81.3 µM (inactive)
GI50 [6]: 94.6 µM (inactive)
GI50 [7]: > 100 µM (inactive)
GI50 [8]: 55.1 µM (inactive)
GI50 [9]: 65.6 µM (inactive)
GI50 [10]: 54.2 µM (inactive)
GI50 [11]: 56.5 µM (inactive)
GI50 [54]: 66.4 µM (inactive)
GI50 [55]: 74.5 µM (inactive)
GI50 [12]: 56.1 µM (inactive)
GI50 [13]: 80.5 µM (inactive)
GI50 [14]: 42.3 µM (inactive)
GI50 [15]: > 100 µM (inactive)
GI50 [16]: 55.1 µM (inactive)
GI50 [17]: > 100 µM (inactive)
GI50 [18]: 23.2 µM (inactive)
GI50 [56]: 31.3 µM (inactive)
GI50 [19]: > 100 µM (inactive)
GI50 [20]: 36.4 µM (inactive)
GI50 [21]: 91.2 µM (inactive)
GI50 [22]: > 100 µM (inactive)
GI50 [23]: 54.5 µM (inactive)
GI50 [24]: 62.7 µM (inactive)
GI50 [25]: > 100 µM (inactive)
GI50 [26]: 52.8 µM (inactive)
GI50 [27]: 45.5 µM (inactive)
GI50 [28]: 31.9 µM (inactive)
GI50 [29]: 38.2 µM (inactive)
GI50 [30]: 53.1 µM (inactive)
GI50 [31]: > 100 µM (inactive)
GI50 [32]: > 10 µM (inactive)
GI50 [33]: 51.6 µM (inactive)
GI50 [34]: > 100 µM (inactive)
GI50 [35]: 42.5 µM (inactive)
GI50 [36]: 64.7 µM (inactive)
GI50 [57]: 44.3 µM (inactive)
GI50 [38]: 97.5 µM (inactive)
GI50 [39]: 70.8 µM (inactive)
GI50 [40]: 50.2 µM (inactive)
GI50 [41]: 89.5 µM (inactive)
GI50 [42]: 40.3 µM (inactive)
GI50 [43]: > 100 µM (inactive)
GI50 [44]: 38.5 µM (inactive)
GI50 [45]: 72.6 µM (inactive)
GI50 [46]: 51.1 µM (inactive)
GI50 [47]: 74.3 µM (inactive)
GI50 [48]: 48 µM (inactive)
GI50 [49]: 93.5 µM (inactive)
GI50 [50]: 40.5 µM (inactive)
GI50 [51]: 70.5 µM (inactive)
GI50 [52]: 56.8 µM
GI50 [53]: 55.6 µM (inactive)

C(=N\N=C1NCCCN1)/c1ccc2ccccc2c1
GI50 [1]: 8.39 µM (inactive)
GI50 [2]: 4.7 µM (inactive)
GI50 [3]: 12.1 µM (inactive)
GI50 [4]: 11.6 µM (inactive)
GI50 [58]: 15.5 µM (inactive)
GI50 [7]: 13.7 µM (inactive)
GI50 [8]: 18.6 µM (inactive)
GI50 [9]: 12.4 µM (inactive)
GI50 [10]: 9.23 µM (inactive)
GI50 [11]: 11.2 µM (inactive)
GI50 [54]: 2.64 µM (inactive)
GI50 [55]: 3.97 µM (inactive)
GI50 [12]: 5.89 µM (inactive)
GI50 [13]: 12.4 µM (inactive)
GI50 [14]: 3.47 µM (inactive)
GI50 [15]: 17.6 µM (inactive)
GI50 [16]: 9.14 µM (inactive)
GI50 [17]: 8.69 µM (inactive)
GI50 [18]: 11.2 µM (inactive)
GI50 [56]: 13.5 µM (inactive)
GI50 [19]: 14.7 µM (inactive)
GI50 [20]: 10.5 µM (inactive)
GI50 [21]: 14.7 µM (inactive)
GI50 [22]: 19.3 µM (inactive)
GI50 [23]: 17.4 µM (inactive)
GI50 [24]: 14.1 µM (inactive)
GI50 [25]: 19.4 µM (inactive)
GI50 [26]: 15.9 µM (inactive)
GI50 [27]: 10.4 µM (inactive)
GI50 [28]: 16.8 µM (inactive)
GI50 [29]: 16.9 µM (inactive)
GI50 [30]: 11 µM (inactive)
GI50 [31]: 5.24 µM (inactive)
GI50 [32]: 5.93 µM (inactive)
GI50 [33]: 15.1 µM (inactive)
GI50 [34]: 6.32 µM (inactive)
GI50 [35]: 10.4 µM (inactive)
GI50 [59]: 10.3 µM (inactive)
GI50 [36]: 6.53 µM (inactive)
GI50 [37]: 3.01 µM (inactive)
GI50 [57]: 14.2 µM (inactive)
GI50 [38]: 17.3 µM (inactive)
GI50 [39]: 12.4 µM (inactive)
GI50 [40]: 8.97 µM (inactive)
GI50 [41]: 3.4 µM (inactive)
GI50 [42]: 4.98 µM (inactive)
GI50 [43]: 7.98 µM (inactive)
GI50 [44]: 1.95 µM (inactive)
GI50 [45]: 13.6 µM (inactive)
GI50 [46]: 11.7 µM (inactive)
GI50 [47]: 11.4 µM (inactive)
GI50 [48]: 10.3 µM (inactive)
GI50 [49]: 11.7 µM (inactive)
GI50 [50]: 3.48 µM (inactive)
GI50 [51]: 18.2 µM (inactive)
GI50 [52]: 13.7 µM
GI50 [53]: 14.7 µM (inactive)
